Results taken from US8455546B2, “Medicament having promoting action on hepatocyte proliferation” (Josai University Educational Corporation, priority 2007, dated 2013).
Read-outs that look alike come from different tables or passages of the source.

What was measured:
[1] = system: primarily cultured rat hepatocytes; assay: Influence on cell density-dependent proliferation of primarily cultured rat hepatocytes; type: cell-based; conditions: cell densities 1-10×10^4 cells/cm^2; NIK-333 10^−9, trans 10^−7, GGP 10^−6 mol/L; four hours; FIG. 2
Text: Hepatocytes isolated by the same method as that of Example 1 were inoculated at cell densities of 1, 2, 3.3, 5, 7, and 10×10^4 cells/cm^2. NIK-333 (10^−9 mol/L), trans (10^−7 mol/L), cis (10^−6 mol/L), GG (10^−7 mol/L), and GGP (10^−6 mol/L) were each added to the hepatocytes pre-cultured in the same manner as that of Example 1.

[2] = system: cell lines derived from human hepatoma (HuH-7, JHH-7, HLF, Hep G2); assay: Influence on proliferation of cell lines derived from human hepatoma (WST-1 live cell count); type: cell-based; conditions: 10^−11 to 10^−7 mol/L, cultured overnight, FIG. 3
Method: The cells were inoculated on a 96-well plate at a cell density of 1×10^4 cells/mL, and cultured overnight at 37° C. in the presence of 5% CO2. […] The cells were cultured overnight at 37° C. in the presence of 5% CO2, and live cell count was measured. The live cell count was measured by using Cell Counting Kit (Wako Pure Chemical Industries). […] Absorbance was measured for each well at a measurement wavelength of 450 nm and a reference wavelength of 655 nm using a microplate reader.

[3] = system: 70% partially hepatectomized rat (PH rat); assay: Liver regeneration in 70% partially hepatectomized rat (PH rat); type: in vivo; conditions: 0.4 mg/kg/day p.o.
Method: Hepatocyte proliferation promoting effect of NIK-333 was examined by using a 70% partially hepatectomized rat (partial hepatectomy: PH rat) as an in vivo experiment system.
Wistar male rats (weight: 130 to 170 g) were subjected to 70% partial hepatectomy according to the method of Higgins G. M. et al. (Arch. Pathol., 12, pp. 186-202, 1931) to prepare PH rats. NIK-333 (solvent was soybean oil, 0.4 mg/kg/day) was orally administered to these PH rats once per day, the administration was repeated and continued for 1 to 14 days, and reaction was observed over time. The model animals fed for 1 to 14 days after the hepatectomy were subjected to abdominal section under diethyl ether anesthesia, and the remaining livers were extracted. The remaining livers were separated into normal hepatic tissues and necrotizing hepatic tissues (liver tissues which were not excisable by the partial hepatectomy and remained), and weight of each was measured (wet weight). The examination was performed for three animals for each group, and the results are indicated as average±standard error. Student t-test was performed between a solvent administered group (soybean oil, 4 mL/kg, p.o.) as a control group and the NIK-333 administered group. The significance level of the test was set at 5% and 1% on both sides.

[4] = system: primarily cultured mouse hepatocytes; conditions: cited from earlier work
[5] = system: rat partially hepatectomized model; conditions: rat partially hepatectomized model (Non-patent document 9); cited from earlier work
hepatoma = conditions: long-term administration over one year (Non-patent document 6); cited from earlier work
[6] = system: primarily cultured rat hepatocytes; assay: Effect of promoting proliferation of primarily cultured rat hepatocytes (number of nuclei); conditions: FIG. 1; for effect of promoting proliferation of primarily cultured rat hepatocytes (number of nuclei): 10^−11 to 10^−7 (and 10^−8 as printed) mol/L, four hours after addition, 3.3×10^4 cells/cm^2, vs solvent control
Method: (§1) Wistar male rats (weight: 200 to 205 g) were used, and hepatocytes were isolated by the in situ collagenase perfusion technique according to the method of Seglen et al. (Methods. Cell Biol., 13, pp. 29-83, 1975). The isolated hepatocytes were suspended in the Williams' medium E (containing 0.1 μg/mL aprotinin, 100 U/mL of penicillin G, 0.1 mg/mL of streptomycin, and 0.1 nmol/L of dexamethasone) containing 5% bovine neonate serum 3 times for washing, and then inoculated on a collagen coated culture dish (35 mm Φ) at a cell density of 3.3×10^4 cells/cm^2. The cells were adhered to the culture dish by culturing them at 37° C. for 3 hours in the presence of 5% CO2 to prepare a primarily cultured hepatocyte cell line. Survival rate of the isolated hepatocytes was obtained by the trypan blue exclusion method, and those showing a survival rate not lower than 93% were used for the following experiments.
(§2) Four hours after the addition of the agents, number of nuclei was measured as follows. The hepatocytes were washed with PBS, and then added with 0.25 mL of a 0.1 mol/L citric acid solution containing 0.1% Triton X-100. The cells were incubated at 37° C. for 30 minutes to solubilize the cell membranes and thereby obtain naked nuclei. The same volume of a PBS solution containing 0.3% trypan blue was further added, and number of the stained nuclei was measured with a hemacytometer.

[7] = system: primarily cultured rat hepatocytes
Method: as §1, §2

[8] = system: mouse liver carcinogenic model; conditions: reported; cited from earlier work

| Structure (SMILES) | cell proliferation promoting action with increasing cell density [1] | proliferation promotion action for human hepatoma cell strains (live cell count) [2] | recovery of liver weight compared with the control group ([3]; 1 to 14 days) | hyperproliferation exceeding the value of the Sham group ([3]; 14th day after PH) | increase rate of liver weight ([3]; 3 days after PH) | liver weight ([3]; 3 days after PH, g liver weight/100 g body weight) | effect on proliferation of primarily cultured mouse hepatocytes ([4]; at a concentration inducing apoptosis of hepatoma cells (Non-patent documents 7 and 8)) | DNA synthesis of regenerated liver [5] | recurrence of hepatoma after radical cure (hepatoma) | effect of promoting proliferation of primarily cultured rat hepatocytes (number of nuclei) [6] | relative strength of the proliferation promoting effect among the tested agents ([6]; comparison of NIK-333, trans, cis, GG, GGP) | effect of promoting proliferation of primarily cultured rat hepatocytes (number of nuclei) [7] | proliferation of mouse hepatocytes ([4]; reported, no concentration given) | oncogenesis in mouse liver carcinogenic model [8] |
| --- | --- | --- | --- | --- | --- | --- | --- | --- | --- | --- | --- | --- | --- | --- |
| CC(C)=CCC/C(C)=C/CC/C(C)=C/C=C/C(C)=C/C(=O)O [NIK-333, (2E,4E,6E,10E)-3,7,11,15-tetramethyl-2,4,6,10,14-hexadecapentaenoic acid] | decreased with the increase of the cell density | no proliferation promotion action | earlier recovery of liver weight | not observed | 85% | 3.0 g LW/BW | does not affect proliferation | delays DNA synthesis | significantly suppressed | significant effect of promoting proliferation | strongest effect | – | – | – |
| CC1=C(/C=C/C(C)=C/C=C/C(C)=C/C(=O)O)C(C)(C)CCC1 [trans, all-trans-retinoic acid] | gave the cell proliferation promoting action even when the cell density was increased | – | – | – | – | – | – | – | – | – | – | significant effect of promoting proliferation | induce the proliferation of mouse hepatocytes | promote oncogenesis |
| CC(C)=CCC/C(C)=C/CC/C(C)=C/CC/C(C)=C/COP(=O)(O)OP(=O)(O)O.N.N.N [GGP, geranylgeranyl pyrophosphate ammonium salt, reference compound] | decreased with the increase of the cell density | – | – | – | – | – | – | – | – | significant effect of promoting proliferation | – | – | – | – |
